Test results published in PubChem BioAssay AID1322 (NMMLSC, 2008).
The source made the active and inactive calls. No rule for the calls is given here.

Biological target: Bcl-2-like protein 1 (Homo sapiens) (UniProt Q07817)
Assay: Bim-Bcl-XL interaction inhibitors, potency, dose response, biochemical, multiplexed, bead flow cytometry, human Bcl-XL (AID 1322); as to inhibition: test concentration not given here
Settings: Bead-based flow cytometry, Bim peptide-Bcl-XL binding, MCF; for inhibition: hits give high values

Sequence of Bcl-2-like protein 1 (Homo sapiens) (Q07817 whole entry, looked up): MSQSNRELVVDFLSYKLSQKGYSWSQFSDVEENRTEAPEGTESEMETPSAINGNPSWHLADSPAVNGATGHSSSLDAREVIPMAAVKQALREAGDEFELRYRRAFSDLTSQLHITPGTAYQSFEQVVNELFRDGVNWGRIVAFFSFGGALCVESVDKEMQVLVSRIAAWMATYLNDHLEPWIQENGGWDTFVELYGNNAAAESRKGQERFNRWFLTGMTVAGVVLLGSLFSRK

| Structure (SMILES) | inhibition | outcome |
| --- | --- | --- |
| CCOC(=O)CSC1=NC(=O)/C(=C\c2ccc(OC(C)=O)cc2)S1 | inactive |  |
| COc1ccc(-c2nnc(SCC(=O)Nc3nc4ccccc4s3)n2C)cc1 | inactive |  |
| CCOc1ccccc1NC(=O)CSc1ccc2nnc(-c3cccnc3)n2n1 | inactive |  |
| CSc1nnc2ccc(-c3cccs3)nn12 | inactive |  |
| Cc1cc(C)cc(-n2c(C)nc3cc(C(=O)O)ccc32)c1 | inactive |  |
| CC1(C)SC(=S)N(NC(=O)Nc2ccccc2)C1N(O)C(=O)Nc1cccc2ccccc12 (centres undefined) | inactive |  |
| Cc1cc(N2CCN(C)CC2)nc2ccc(NC(=S)N3CCC4(CC3)OCCO4)cc12 |  | inactive |
| CCC(=O)OCCNc1cc(Sc2nc3ccccc3s2)c2nonc2c1[N+](=O)[O-] | inactive |  |
| CN=c1scc(C)n1/N=C/c1ccc(O)c(O)c1O | inactive |  |
| Cc1ccc(OCC(=O)NCc2ccccn2)c(Br)c1 | inactive |  |
| Cn1c(=O)c2c(nc(NCCO)n2CCc2ccccc2)n(C)c1=O | inactive |  |
| COCCNC(=S)Nc1cc(OC)c(OC)cc1C#N | inactive |  |
| CNC(=O)CC1C(=O)N(Cc2ccccc2)C(=S)N1NC(=O)c1cccc(F)c1 (centres undefined) |  | inactive |
| Cc1cc(NC(=O)CSc2nnc(-c3cccnc3)n2Cc2ccccc2)no1 | inactive |  |
| Cn1c(=O)c(C(=O)COC(=O)c2cc(-c3ccco3)nc3ccccc23)c(N)n(CC2CC2)c1=O | inactive |  |
| CN(CCc1ccccn1)C(=O)CCC1CCCN(C(=O)NC2CCCCC2)C1 (centres undefined) |  | inactive |
| Cc1ccc(C(=O)C(C(=O)/C=C/c2ccccc2)=C2SCCCS2)cc1 | inactive |  |
| Cn1c(CCNC(=O)C2CCCCC2)nc2cc(NC(=O)c3cccs3)ccc21 |  | inactive |
| COc1ccc(C2C(C#N)=C(C)NC3=C2S(=O)(=O)c2ccccc23)cc1 (centres undefined) | inactive |  |
| C#CCOCCOCCOCCNc1nc(N2CCN(C(=O)[C@H](CCCCN)n3cc(CCCC)nn3)CC2)nc(N2CCN(C(=O)[C@H](Cc3ccc(O)cc3)n3cc(CCO)nn3)CC2)n1 | inactive |  |
| COc1cc(/C=C2\SC(=S)NC2=O)ccc1OS(=O)(=O)c1ccccc1 | inactive |  |
| N/C(=N\N=C/c1ccc(Br)cc1)N/N=C\c1ccc(Br)cc1 | inactive |  |
| O=C(O)C1=C[C@H](C2CC2)C[C@H](OCCCCO)O1 | inactive |  |
| CCOC(=O)c1cccc(Nc2ncnc3ccccc23)c1 | inactive |  |
| S=c1[nH]cc(-c2ccccc2)n1-c1ccccc1 | inactive |  |

| Structure (SMILES) | inhibition | outcome |
| --- | --- | --- |
| COc1ccc(C(=O)NC(=S)N2CCNC(=O)C2)cc1Br |  | inactive |
| COCCN=c1scc(-c2cccs2)n1/N=C/c1ccc(O)c(O)c1O | inactive |  |
| COc1ccc(N2CCN(C(=O)c3cc(=O)[nH]c4ccccc34)CC2)cc1 | inactive |  |
| COc1ccc(/C=C/C(=O)c2cc(Br)ccc(=O)c2O)cc1 |  | inactive |
| C=CCN1C(=O)/C(=C/c2ccsc2)SC1=S |  | inactive |
| O=C(Nc1cccc(-c2ccc3nncn3n2)c1)c1ccco1 | inactive |  |
| CC(C)C(=O)NC(c1ccccc1)c1cc([N+](=O)[O-])c2cccnc2c1O (centres undefined) |  | inactive |
| O=C1NC(=S)S/C1=C/c1ccc(N2CCOCC2)o1 | inactive |  |
| CN(C)c1ccc(C=C2C(=O)NC(=O)NC2=O)cc1[N+](=O)[O-] | inactive |  |
| O=C1C(Cl)=C(N2CCN(c3ccccc3[N+](=O)[O-])CC2)C(=O)c2ccccc21 | inactive |  |
| Cc1nc2scc(-c3ccccc3)c2c(=O)n1N=C1C=CC(=O)C=C1 | inactive |  |
| CCN(CC)c1ccc(-c2nn3c(-c4n[nH]c5c4CCC5)nnc3s2)cc1 | inactive |  |
| COc1cc(NC(=S)NC(=O)c2cc(C)cc(C)c2)ccc1NC(=O)c1cccs1 | inactive |  |
| CSc1n[nH]c2nc3c(c(=O)n12)C1(CCCC1)Cc1ccccc1-3 |  | inactive |
| O=C(O)c1ccc(NS(=O)(=O)c2ccc3c(c2)C(=O)c2ccccc2C3=O)cc1 | inactive |  |
| O=C(COc1ccccc1)N1CCN(c2ncnc3c2cnn3-c2ccccc2)CC1 | inactive |  |
| O=C1NC(=O)C2(Cc3c(nc4ccccn4c3=O)N3CCCCCC32)C(=O)N1Cc1ccccc1 (centres undefined) | inactive |  |
| Cn1c(=O)[nH]c(=O)c2c1nc(N1CCOCC1)n2CCSc1nc2ccccc2[nH]1 | inactive |  |
| O=C(COCC(=O)NCc1ccccc1)NCc1ccccc1 | inactive |  |
| CCOC(=O)c1sc(NC(=O)c2ccncc2)c(C#N)c1C | inactive |  |
| Cc1cc(-c2csc(N)n2)c(C)n1CCc1ccccc1 | inactive |  |
| CC(C)c1ccc(/C=N/NC(=O)c2ccccc2Cl)cc1 | inactive |  |
| O=C(C[n+]1ccc(-c2nnc3n2CCC3)cc1)c1ccc(Cl)cc1 |  | inactive |
| COc1ccc(NC(=O)C2=C(C)NC(=O)NC2c2cccc(OC)c2OC)c(OC)c1 (centres undefined) | inactive |  |
| Cc1ccc(C)n1-c1ccc(N2CCOCC2)cc1 | inactive |  |

| Structure (SMILES) | inhibition | outcome |
| --- | --- | --- |
| COc1cccc(/C=N/NC(=O)c2cc3cc([N+](=O)[O-])ccc3s2)c1O | inactive |  |
| Cc1onc(-c2ccccc2Cl)c1C(=O)Nc1nn[nH]n1 | inactive |  |
| COc1cc(/C=C2\S/C(=N/S(=O)(=O)c3ccc(C)cc3)NC2=O)c([N+](=O)[O-])cc1OC | inactive |  |
| CCOC(=O)c1cc2c(=O)n3cccc(C)c3nc2n(Cc2ccco2)c1=NC(=O)c1ccccc1 | inactive |  |
| CCN(C(=O)COC(=O)c1cc(-c2ccc(C)o2)nc2ccccc12)C1CCS(=O)(=O)C1 (centres undefined) | inactive |  |
| O=C(Nc1nnc(COc2ccc(Cl)cc2)s1)c1ccco1 | inactive |  |
| Cc1nc2cc(F)ccc2n1C1CCN(C(=O)c2c(F)cccc2F)CC1 | inactive |  |
| CC1Cc2ccccc2N1C(=O)c1ccc(N2CCCC2)c([N+](=O)[O-])c1 (centres undefined) | inactive |  |
| CCOc1ccc(N2C(=O)C(Cl)=C(Nc3ccccc3O)C2=O)cc1 | inactive |  |
| O=C(Cn1cncc1-c1ccc([N+](=O)[O-])cc1)Nc1ccccc1F | inactive |  |
| COC(=O)/C(=C/c1ccc(F)cc1)NC(C)=O | inactive |  |
| Cc1c(N2C(=O)c3ccc4c5c(ccc(c35)C2=O)CC4)c(=O)n(-c2ccccc2)n1C | inactive |  |
| COc1ccc(C(=O)Nc2ccc(C(=O)OCC(=O)c3cccc4ccccc34)cc2)cc1 | inactive |  |
| COc1ccc(C2CN(C)CC2C(=O)c2ccc(F)cc2)cc1Cl (centres undefined) |  | inactive |
| CCc1nnc(NC(=O)CSc2nnc(COc3ccc(C)cc3)n2-c2ccccc2)s1 | inactive |  |
| COc1ccc(N2CCN(C(CNS(=O)(=O)c3ccc4c(c3)OCCO4)c3ccco3)CC2)cc1 (centres undefined) |  | inactive |
| CCOc1cccc(CNc2ccc(O)cc2)c1OCc1ccc(Cl)cc1 | inactive |  |
| O=C(CCc1ccccc1)N1CCN(c2ccccn2)CC1 |  | inactive |
| CN(C)c1ccc(/C=C2/SC(=O)N(CCN=C3NS(=O)(=O)c4ccccc43)C2=O)cc1 | inactive |  |
| Cc1cc(-c2csc(N)n2)c(C)n1C | inactive |  |
| COc1ccccc1Oc1ccc2c(c1)C(=O)N(c1cccc3ncccc13)C2=O | inactive |  |
| O=C(c1cnccn1)N1CCN(c2ccccc2F)CC1 | inactive |  |
| CS(=O)(=O)NN1C(=O)c2ccccc2NC1c1cccc2cccnc12 (centres undefined) | inactive |  |
| CCNC(=S)Nc1cc(OCC)c(NC(=O)c2cccs2)cc1OCC | inactive |  |
| Cc1ccc(/C=C/C(=O)Nc2ccc([N+](=O)[O-])c(NC(=O)/C=C/c3ccc(C)o3)c2)o1 | inactive |  |

| Structure (SMILES) | inhibition | outcome |
| --- | --- | --- |
| CN(C)c1ccc(C(=O)/C=C/c2ccc(Br)cc2)cc1 | inactive |  |
| COc1c(F)c(F)c(C(=O)Nc2ccccc2N2CCN(C(=O)C(C)C)CC2)c(F)c1F | inactive |  |
| OCCC1CN(Cc2ccc3ncccc3c2)CCN1Cc1ccccc1 (centres undefined) |  | inactive |
| Cc1cccc(N2CCN(C(=S)Nc3ccc4nc(N5CCN(C)CC5)cc(C)c4c3)CC2)c1C | inactive |  |
| COc1ccccc1-n1c(SCC(=O)N2CCc3ccccc32)nc2c(c1=O)SCC2 | inactive |  |
| COc1ccccc1NC1=C(NC(C)=O)C(=O)c2ccccc2C1=O | inactive |  |
| CN(C)[C@@H]1C(=O)C(C(=O)NCN2CCCC2)=C(O)[C@@]2(O)C(=O)C3=C(O)c4c(O)cccc4[C@@](C)(O)C3CC12 (some centres undefined) | inactive |  |
| O=C(c1ccc(CNS(=O)(=O)c2ccc(Br)cc2)cc1)N1CCCC1 | inactive |  |
| Cc1cccc(N=C2NC(=O)/C(=C/C=C/c3ccco3)S2)c1C | inactive |  |
| Cc1ccc2nc3c(cc(C(N)=S)c(=N)n3CCCOC(C)C)c(=O)n2c1 | inactive |  |
| CCN1CCN(c2cc(C)c3cc(NC(=S)N4CCN(c5ccccc5)CC4)ccc3n2)CC1 | inactive |  |
| O=C(NCCc1ccccc1)c1ccc2nc(-c3ccco3)c(-c3ccco3)nc2c1 | inactive |  |
| CCN(CC)c1ccc(Nc2nc(N3CCOCC3)c3ccccc3n2)cc1 | inactive |  |
| Cc1ccc(-c2cc(C(=O)Nc3ccccn3)c3ccccc3n2)o1 | inactive |  |
| COc1cc(C=Nc2cccc(C)c2)c(O)c([N+](=O)[O-])c1 | inactive |  |
| CCN1CCN(c2cc(C)c3cc(NC(=S)N4CCN(c5ccc(F)cc5)CC4)ccc3n2)CC1 | inactive |  |
| C=CCn1c(C)c(C(C)=O)c(N2CCOCC2)nc1=S | inactive |  |
| Cc1ccccc1-n1c(SCc2cccc(F)c2)nc2[nH]ncc2c1=O |  | inactive |
| CCCn1c(N2CCN(C)CC2)nc2c1c(=O)[nH]c(=O)n2C | inactive |  |
| Cc1ccc(NC(=O)C/C(N)=N/OC(=O)c2ccccc2)cc1 | inactive |  |
| COc1cc(CNc2ccc3[nH]c(=O)[nH]c3c2)cc(Br)c1OCC(=O)NC(C)(C)C | inactive |  |
| O=C(C1CCC(Cn2c(=S)[nH]c3ccccc3c2=O)CC1)N1CCN(c2ccccn2)CC1 (centres undefined) |  | inactive |
| Cc1ccc(-c2cc(C(=O)Nc3ccccc3C)c3ccccc3n2)o1 | inactive |  |
| Cc1cc2nc(/C(C#N)=C/c3ccncc3)[nH]c2cc1C | inactive |  |
